Where two headings read alike, the source gives them in different places.
How the values were obtained:
PDGFRα(V561D) = target: T1, PDGFRα(V561D) (Homo sapiens, UniProt P16234, V561D); test: Kinome profiler screen; format: biochemical
T1 construct: purchased Millipore KinaseProfiler

PDGFRα(D842V) = target: T2, PDGFRα(D842V) (Homo sapiens, UniProt P16234, D842V); test: Kinome profiler screen; format: biochemical; conditions: at 20,000 nM inhibitor; kinase activity remaining
T2 construct: purchased Millipore KinaseProfiler

HIPK2 = target: T3, HIPK2 (Homo sapiens, UniProt Q9H2X6); test: Kinome profiler screen; format: biochemical; conditions: at 20,000 nM inhibitor; kinase activity remaining
T3 construct: purchased Millipore KinaseProfiler

SIK = target: T4, SIK (Homo sapiens, UniProt P57059); test: Kinome profiler screen; format: biochemical; conditions: at 20,000 nM inhibitor; kinase activity remaining
T4 construct: purchased Millipore KinaseProfiler

Ron = target: T5, Ron (Homo sapiens, UniProt Q04912); test: Kinome profiler screen; format: biochemical; conditions: at 20,000 nM inhibitor; kinase activity remaining
T5 construct: purchased Millipore KinaseProfiler

IRAK1 = target: T6, IRAK1 (Homo sapiens, UniProt P51617); test: Kinome profiler screen; format: biochemical; conditions: at 20,000 nM inhibitor; kinase activity remaining
T6 construct: purchased Millipore KinaseProfiler

Pim-2 = target: T7, Pim-2 (Homo sapiens, UniProt Q9P1W9); test: Kinome profiler screen; format: biochemical; conditions: at 20,000 nM inhibitor; kinase activity remaining
T7 construct: purchased Millipore KinaseProfiler

Abl(Y253F) = target: T8, Abl(Y253F) (Homo sapiens, UniProt P00519, Y253F); test: Kinome profiler screen; format: biochemical; conditions: at 20,000 nM inhibitor; kinase activity remaining
T8 construct: purchased Millipore KinaseProfiler

EGFR(L858R) = target: T9, EGFR(L858R) (Homo sapiens, UniProt P00533, L858R); test: Kinome profiler screen; format: biochemical; conditions: at 20,000 nM inhibitor; kinase activity remaining
T9 construct: purchased Millipore KinaseProfiler

Src(T341M) = target: T10, Src(T341M) (Homo sapiens, UniProt P12931, T341M); test: Kinome profiler screen; format: biochemical; conditions: at 20,000 nM inhibitor; kinase activity remaining
T10 construct: purchased Millipore KinaseProfiler

STK33 = target: T11, STK33 (Homo sapiens, UniProt Q9BYT3); test: Kinome profiler screen; format: biochemical; conditions: at 20,000 nM inhibitor; kinase activity remaining
T11 construct: purchased Millipore KinaseProfiler

PAK4 = target: T12, PAK4 (Homo sapiens, UniProt O96013); test: Kinome profiler screen; format: biochemical; conditions: at 20,000 nM inhibitor; kinase activity remaining
T12 construct: purchased Millipore KinaseProfiler

Abl = target: T13, Abl (Homo sapiens, UniProt P00519); test: Kinome profiler screen; format: biochemical; conditions: at 20,000 nM inhibitor; kinase activity remaining
T13 construct: purchased Millipore KinaseProfiler

Met(Y1248H) = target: T14, Met(Y1248H) (Homo sapiens, UniProt P08581, Y1230H); test: Kinome profiler screen; format: biochemical; conditions: at 20,000 nM inhibitor; kinase activity remaining
T14 construct: purchased Millipore KinaseProfiler

DMPK = target: T15, DMPK (Homo sapiens, UniProt Q09013); test: Kinome profiler screen; format: biochemical; conditions: at 20,000 nM inhibitor; kinase activity remaining
T15 construct: purchased Millipore KinaseProfiler

Syk = target: T16, Syk (Homo sapiens, UniProt P43405); test: Kinome profiler screen; format: biochemical; conditions: at 20,000 nM inhibitor; kinase activity remaining
T16 construct: purchased Millipore KinaseProfiler

Fyn = target: T17, Fyn (Homo sapiens, UniProt P06241); test: Kinome profiler screen; format: biochemical; conditions: at 20,000 nM inhibitor; kinase activity remaining
T17 construct: purchased Millipore KinaseProfiler

Met(M1268T) = target: T18, Met(M1268T) (Homo sapiens, UniProt P08581, M1250T); test: Kinome profiler screen; format: biochemical; conditions: at 20,000 nM inhibitor; kinase activity remaining
T18 construct: purchased Millipore KinaseProfiler

NEK7 = target: T19, NEK7 (Homo sapiens, UniProt Q8TDX7); test: Kinome profiler screen; format: biochemical; conditions: at 20,000 nM inhibitor; kinase activity remaining
T19 construct: purchased Millipore KinaseProfiler

PI3 Kinase (p120γ) = target: T20, PI3 Kinase (p120γ) (Homo sapiens, UniProt P48736); test: Kinome profiler screen; format: biochemical; conditions: at 20,000 nM inhibitor; kinase activity remaining
T20 construct: purchased Millipore KinaseProfiler

NEK2 = target: T21, NEK2 (Homo sapiens, UniProt P51955); test: Kinome profiler screen; format: biochemical; conditions: at 20,000 nM inhibitor; kinase activity remaining
T21 construct: purchased Millipore KinaseProfiler

GRK5 = target: T22, GRK5 (Homo sapiens, UniProt P34947); test: Kinome profiler screen; format: biochemical
T22 construct: purchased Millipore KinaseProfiler

ROCK-I = target: T23, ROCK-I (Homo sapiens, UniProt Q13464); test: Kinome profiler screen; format: biochemical; conditions: at 20,000 nM inhibitor; kinase activity remaining
T23 construct: purchased Millipore KinaseProfiler

DAPK1 = target: T24, DAPK1 (Homo sapiens, UniProt P53355); test: Kinome profiler screen; format: biochemical; conditions: at 20,000 nM inhibitor; kinase activity remaining
T24 construct: purchased Millipore KinaseProfiler

WNK3 = target: T25, WNK3 (Homo sapiens, UniProt Q9BYP7); test: Kinome profiler screen; format: biochemical; conditions: at 20,000 nM inhibitor; kinase activity remaining
T25 construct: purchased Millipore KinaseProfiler

EGFR(T790M) = target: T26, EGFR(T790M) (Homo sapiens, UniProt P00533, T790M); test: Kinome profiler screen; format: biochemical; conditions: at 20,000 nM inhibitor; kinase activity remaining
T26 construct: purchased Millipore KinaseProfiler

Axl = target: T27, Axl (Homo sapiens, UniProt P30530); test: Kinome profiler screen; format: biochemical; conditions: at 20,000 nM inhibitor; kinase activity remaining
T27 construct: purchased Millipore KinaseProfiler

Ret(V804M) = target: T28, Ret(V804M) (Homo sapiens, UniProt P07949, V804M); test: Kinome profiler screen; format: biochemical; conditions: at 20,000 nM inhibitor; kinase activity remaining
T28 construct: purchased Millipore KinaseProfiler

JAK3 = target: T29, JAK3 (Homo sapiens, UniProt P52333); test: Kinome profiler screen; format: biochemical; conditions: at 20,000 nM inhibitor; kinase activity remaining
T29 construct: purchased Millipore KinaseProfiler

Plk3 = target: T30, Plk3 (Homo sapiens, UniProt Q9H4B4); test: Kinome profiler screen; format: biochemical; conditions: at 20,000 nM inhibitor; kinase activity remaining
T30 construct: purchased Millipore KinaseProfiler

[1] = Dose escalation adverse event screen (SHIRPA based); format: in vivo; conditions: highest dose at which no adverse events are observed in dose escalation studies, mice
Description: Novel compounds were screened in vivo using a standard dose escalation screen in mice coupled with clinical observation and testing based on the SHIRPA mouse phenotype assay paradigm. To obtain insight into the potential for off-target activity with the largest known family of small molecule drug targets, G-protein coupled receptors (GPCRs), a cell-based functional screen of the final title compounds was done. The Millipore® GPCR Profiler screen employs the ChemiScreen GPCR stable cell line technology used for real-time calcium flux FLIPR assays on a panel of 158 GPCRs to detect both antagonists and agonists. The NCBI Entrez identifier for each GPCR is provided at the vendor site (www.millipore.com). Follow-up validation of any initial hits as being true positives or negatives was done as described above for protein kinases by testing the concentration dependence of any cellular effects. No validated hits were detected.

Snk = target: T31, Snk (Homo sapiens, UniProt Q9NYY3); test: Kinome profiler screen; format: biochemical; conditions: at 20,000 nM inhibitor; kinase activity remaining
T31 construct: purchased Millipore KinaseProfiler

Fms = target: T32, Fms (Homo sapiens, UniProt P07333); test: Kinome profiler screen; format: biochemical; conditions: at 20,000 nM inhibitor; kinase activity remaining
T32 construct: purchased Millipore KinaseProfiler

EphA1 = target: T33, EphA1 (Homo sapiens, UniProt P21709); test: Kinome profiler screen; format: biochemical; conditions: at 20,000 nM inhibitor; kinase activity remaining
T33 construct: purchased Millipore KinaseProfiler

PKCη = target: T34, PKCη (Homo sapiens, UniProt P24723); test: Kinome profiler screen; format: biochemical; conditions: at 20,000 nM inhibitor; kinase activity remaining
T34 construct: purchased Millipore KinaseProfiler

LKB1 = target: T35, LKB1 (Homo sapiens, UniProt Q15831); test: Kinome profiler screen; format: biochemical; conditions: at 20,000 nM inhibitor; kinase activity remaining
T35 construct: purchased Millipore KinaseProfiler

Tec(h) activated = target: T36, Tec(h) activated (Homo sapiens, UniProt P42680); test: Kinome profiler screen; format: biochemical; conditions: at 20,000 nM inhibitor; kinase activity remaining
T36 construct: purchased Millipore KinaseProfiler

Abl (Q252H) = target: T37, Abl (Q252H) (Homo sapiens, UniProt P00519, Q252H); test: Kinome profiler screen; format: biochemical; conditions: at 20,000 nM inhibitor; kinase activity remaining
T37 construct: purchased Millipore KinaseProfiler

[2] = at 20,000 nM inhibitor, kinase activity remaining, read-out: % Activity

T28 sequence (P07949 29-1114 V804M): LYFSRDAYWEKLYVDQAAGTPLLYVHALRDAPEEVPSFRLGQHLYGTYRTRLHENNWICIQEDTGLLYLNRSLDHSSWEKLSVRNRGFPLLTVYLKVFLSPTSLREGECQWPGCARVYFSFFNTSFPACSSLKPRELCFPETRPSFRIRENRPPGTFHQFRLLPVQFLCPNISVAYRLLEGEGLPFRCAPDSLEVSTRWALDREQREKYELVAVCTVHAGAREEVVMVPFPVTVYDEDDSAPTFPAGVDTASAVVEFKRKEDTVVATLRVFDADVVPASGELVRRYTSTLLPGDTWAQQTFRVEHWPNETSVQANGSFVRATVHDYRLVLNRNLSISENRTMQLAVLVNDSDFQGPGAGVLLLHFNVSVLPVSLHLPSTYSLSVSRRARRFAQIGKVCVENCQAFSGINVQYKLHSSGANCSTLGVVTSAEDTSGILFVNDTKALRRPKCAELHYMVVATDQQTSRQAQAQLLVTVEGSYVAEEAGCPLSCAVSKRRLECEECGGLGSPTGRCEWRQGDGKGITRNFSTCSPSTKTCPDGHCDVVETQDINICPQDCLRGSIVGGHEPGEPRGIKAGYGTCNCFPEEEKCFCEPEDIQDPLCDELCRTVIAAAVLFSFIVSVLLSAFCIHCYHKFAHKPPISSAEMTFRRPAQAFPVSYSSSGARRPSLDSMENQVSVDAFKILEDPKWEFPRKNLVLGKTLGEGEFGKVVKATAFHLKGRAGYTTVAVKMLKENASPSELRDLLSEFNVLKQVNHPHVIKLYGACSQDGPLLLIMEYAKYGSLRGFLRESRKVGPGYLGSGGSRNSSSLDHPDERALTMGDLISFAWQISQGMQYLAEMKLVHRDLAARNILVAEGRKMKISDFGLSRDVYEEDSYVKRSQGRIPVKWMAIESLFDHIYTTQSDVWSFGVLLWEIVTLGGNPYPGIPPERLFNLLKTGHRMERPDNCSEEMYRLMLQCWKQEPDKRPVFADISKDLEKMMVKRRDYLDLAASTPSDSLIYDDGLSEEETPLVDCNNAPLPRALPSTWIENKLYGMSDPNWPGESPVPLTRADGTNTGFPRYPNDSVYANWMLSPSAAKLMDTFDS
T20 sequence (P48736 whole entry): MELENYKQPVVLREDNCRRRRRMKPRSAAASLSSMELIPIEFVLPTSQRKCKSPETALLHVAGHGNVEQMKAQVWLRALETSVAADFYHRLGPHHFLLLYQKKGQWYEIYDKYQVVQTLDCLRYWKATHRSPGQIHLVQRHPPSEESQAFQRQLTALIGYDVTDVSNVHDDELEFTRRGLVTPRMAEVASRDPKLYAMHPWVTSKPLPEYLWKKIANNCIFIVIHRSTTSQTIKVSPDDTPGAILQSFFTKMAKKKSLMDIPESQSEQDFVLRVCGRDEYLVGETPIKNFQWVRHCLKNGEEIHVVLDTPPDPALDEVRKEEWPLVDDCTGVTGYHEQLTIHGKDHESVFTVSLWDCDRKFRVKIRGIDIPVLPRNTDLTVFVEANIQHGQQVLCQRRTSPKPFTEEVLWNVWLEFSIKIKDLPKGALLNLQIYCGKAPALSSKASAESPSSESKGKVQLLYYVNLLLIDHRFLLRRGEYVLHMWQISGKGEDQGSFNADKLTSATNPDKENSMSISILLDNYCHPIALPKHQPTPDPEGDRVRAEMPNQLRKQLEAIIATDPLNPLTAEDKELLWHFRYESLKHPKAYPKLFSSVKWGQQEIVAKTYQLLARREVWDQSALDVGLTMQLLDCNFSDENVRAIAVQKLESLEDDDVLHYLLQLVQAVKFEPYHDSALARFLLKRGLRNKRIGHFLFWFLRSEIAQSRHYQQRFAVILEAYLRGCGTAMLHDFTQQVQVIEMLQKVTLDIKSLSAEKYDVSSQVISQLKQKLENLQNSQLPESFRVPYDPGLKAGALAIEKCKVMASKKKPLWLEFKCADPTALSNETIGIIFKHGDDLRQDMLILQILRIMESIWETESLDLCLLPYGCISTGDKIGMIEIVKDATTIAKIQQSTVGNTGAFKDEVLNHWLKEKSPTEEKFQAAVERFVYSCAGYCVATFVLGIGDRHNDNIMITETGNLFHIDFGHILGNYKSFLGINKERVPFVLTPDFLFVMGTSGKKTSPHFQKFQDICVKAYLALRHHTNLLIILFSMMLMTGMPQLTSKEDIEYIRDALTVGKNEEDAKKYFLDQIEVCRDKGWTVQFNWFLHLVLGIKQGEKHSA
T5 sequence (Q04912 25-1400): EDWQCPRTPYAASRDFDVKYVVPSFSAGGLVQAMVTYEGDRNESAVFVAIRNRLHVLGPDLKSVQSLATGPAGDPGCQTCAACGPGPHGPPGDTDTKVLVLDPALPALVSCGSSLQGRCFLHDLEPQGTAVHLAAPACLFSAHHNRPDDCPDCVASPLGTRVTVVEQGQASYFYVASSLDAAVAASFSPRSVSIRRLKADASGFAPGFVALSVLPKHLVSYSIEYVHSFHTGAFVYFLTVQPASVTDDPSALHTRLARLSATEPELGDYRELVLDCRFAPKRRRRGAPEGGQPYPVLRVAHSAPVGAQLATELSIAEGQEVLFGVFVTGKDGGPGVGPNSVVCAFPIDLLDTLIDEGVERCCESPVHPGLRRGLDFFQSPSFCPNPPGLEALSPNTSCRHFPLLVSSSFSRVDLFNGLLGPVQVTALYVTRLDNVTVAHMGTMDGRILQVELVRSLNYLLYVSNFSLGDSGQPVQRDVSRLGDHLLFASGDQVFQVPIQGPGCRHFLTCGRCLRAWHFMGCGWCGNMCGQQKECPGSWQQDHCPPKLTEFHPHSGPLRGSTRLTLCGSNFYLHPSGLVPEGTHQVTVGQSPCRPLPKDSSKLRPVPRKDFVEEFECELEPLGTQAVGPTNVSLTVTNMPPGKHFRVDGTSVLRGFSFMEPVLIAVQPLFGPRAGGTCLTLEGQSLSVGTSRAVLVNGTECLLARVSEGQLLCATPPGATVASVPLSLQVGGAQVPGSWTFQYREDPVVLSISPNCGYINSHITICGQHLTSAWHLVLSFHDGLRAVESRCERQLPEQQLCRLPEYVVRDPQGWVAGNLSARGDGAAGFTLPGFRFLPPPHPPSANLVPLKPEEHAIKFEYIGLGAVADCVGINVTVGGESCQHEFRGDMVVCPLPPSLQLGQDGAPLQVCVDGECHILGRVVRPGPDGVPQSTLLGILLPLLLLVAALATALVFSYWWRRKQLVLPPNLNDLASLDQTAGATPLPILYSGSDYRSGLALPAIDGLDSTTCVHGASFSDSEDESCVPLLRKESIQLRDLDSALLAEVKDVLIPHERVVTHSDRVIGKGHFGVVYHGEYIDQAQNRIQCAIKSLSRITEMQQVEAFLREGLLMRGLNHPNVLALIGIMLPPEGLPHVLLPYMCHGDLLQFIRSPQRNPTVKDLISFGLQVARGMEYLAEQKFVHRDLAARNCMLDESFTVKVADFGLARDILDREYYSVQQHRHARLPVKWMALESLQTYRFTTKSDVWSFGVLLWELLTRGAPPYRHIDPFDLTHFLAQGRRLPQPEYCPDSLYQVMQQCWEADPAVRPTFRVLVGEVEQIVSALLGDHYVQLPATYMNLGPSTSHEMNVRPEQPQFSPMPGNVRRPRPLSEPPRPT
T11 sequence (Q9BYT3 whole entry): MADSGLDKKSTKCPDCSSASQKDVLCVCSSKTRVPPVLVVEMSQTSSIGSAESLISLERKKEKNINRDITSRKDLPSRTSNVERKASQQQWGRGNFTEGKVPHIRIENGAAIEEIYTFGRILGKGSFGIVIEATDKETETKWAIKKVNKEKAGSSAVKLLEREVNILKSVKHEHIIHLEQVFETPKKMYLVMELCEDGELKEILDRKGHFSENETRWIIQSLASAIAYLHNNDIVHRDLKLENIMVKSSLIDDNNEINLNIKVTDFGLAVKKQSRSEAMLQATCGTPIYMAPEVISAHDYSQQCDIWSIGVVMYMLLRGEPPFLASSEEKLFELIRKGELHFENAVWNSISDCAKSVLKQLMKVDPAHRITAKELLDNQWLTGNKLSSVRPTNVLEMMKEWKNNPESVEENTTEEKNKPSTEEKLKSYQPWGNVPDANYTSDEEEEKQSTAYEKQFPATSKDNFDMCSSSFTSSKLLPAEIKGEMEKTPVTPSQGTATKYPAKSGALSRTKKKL
T19 sequence (Q8TDX7 whole entry): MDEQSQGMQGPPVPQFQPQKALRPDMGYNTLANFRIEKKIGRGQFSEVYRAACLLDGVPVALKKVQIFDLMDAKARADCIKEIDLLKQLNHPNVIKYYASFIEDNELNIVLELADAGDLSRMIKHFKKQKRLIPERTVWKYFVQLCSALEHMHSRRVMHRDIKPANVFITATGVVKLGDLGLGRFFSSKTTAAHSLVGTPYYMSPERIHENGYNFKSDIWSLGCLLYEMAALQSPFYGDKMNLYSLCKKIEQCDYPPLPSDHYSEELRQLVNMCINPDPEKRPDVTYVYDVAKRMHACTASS
T17 sequence (P06241 whole entry): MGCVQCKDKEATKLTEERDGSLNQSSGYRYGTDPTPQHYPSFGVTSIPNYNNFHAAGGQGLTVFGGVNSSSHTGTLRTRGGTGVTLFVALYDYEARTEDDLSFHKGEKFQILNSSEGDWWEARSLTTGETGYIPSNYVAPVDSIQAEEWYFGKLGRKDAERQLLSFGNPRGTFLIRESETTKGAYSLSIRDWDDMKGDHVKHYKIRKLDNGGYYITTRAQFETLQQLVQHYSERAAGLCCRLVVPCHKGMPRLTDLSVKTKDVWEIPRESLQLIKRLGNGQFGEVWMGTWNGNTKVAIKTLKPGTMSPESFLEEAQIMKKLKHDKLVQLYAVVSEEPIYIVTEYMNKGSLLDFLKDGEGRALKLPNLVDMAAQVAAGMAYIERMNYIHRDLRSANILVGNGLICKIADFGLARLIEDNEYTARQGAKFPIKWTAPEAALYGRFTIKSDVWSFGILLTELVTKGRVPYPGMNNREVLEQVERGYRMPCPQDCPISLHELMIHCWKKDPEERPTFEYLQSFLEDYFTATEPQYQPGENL

Row | Structure (SMILES) | activity at 20 µM (PDGFRα(D842V)) [%] | activity at 20 µM (HIPK2) [%] | activity at 20 µM (SIK) [%] | activity at 20 µM (Ron) [%] | activity at 20 µM (IRAK1) [%] | activity at 20 µM (Pim-2) [%] | activity at 20 µM (Abl(Y253F)) [%] | activity at 20 µM (EGFR(L858R)) [%] | activity at 20 µM (Src(T341M)) [%] | activity at 20 µM (STK33) [%] | activity at 20 µM (PAK4) [%] | activity at 20 µM (Abl) [%] | activity at 20 µM (Met(Y1248H)) [%] | activity at 20 µM (DMPK) [%] | activity at 20 µM (Syk) [%] | activity at 20 µM (Fyn) [%] | activity at 20 µM (Met(M1268T)) [%] | activity at 20 µM (NEK7) [%] | activity at 20 µM (PI3 Kinase (p120γ)) [%] | activity at 20 µM (NEK2) [%] | other results
1 | CN(C)c1cc(-c2ccncc2)c(-c2cccc3ccccc23)nn1 [MW181, N,N-dimethyl-6-(naphthalen-1-yl)-5-(pyridin-4-yl)pyridazin-3-amine] | 104 | 102 | 92 | 94 | 102 | 103 | 108 | 78 | 102 | 99 | 109 | 125 | 103 | 116 | 105 | 109 | 95 | 102 | 100 | 94 | activity at 20 µM (PDGFRα(V561D); [2]): 103%; activity at 20 µM (GRK5; [2]): 100%; activity at 20 µM (ROCK-I): 97%; activity at 20 µM (DAPK1): 99%; activity at 20 µM (WNK3): 89%; activity at 20 µM (EGFR(T790M)): 105%; activity at 20 µM (Axl): 99%; activity at 20 µM (Ret(V804M)): 102%; activity at 20 µM (JAK3): 103%; activity at 20 µM (Plk3): 92%; Dose Escalating Adverse Event Screen / Adverse Pharm Dose [1]: ≥ 200 mg/kg; Dose Escalating Adverse Event Screen / Adverse Pharm Dose ([1]; listed as MW01-10-181SRM): > 200 mg/kg; activity at 20 µM (Snk): 99%; activity at 20 µM (Fms): 85%; activity at 20 µM (EphA1): 76%; activity at 20 µM (PKCη): 104%; activity at 20 µM (LKB1): 100%; activity at 20 µM (Tec(h) activated): 98%; activity at 20 µM (Abl (Q252H)): 100%
2 | CN(C)c1cc(-c2ccncc2)c(-c2ccc3ccccc3c2)nn1 [MW108, N, N-dimethyl-6-(naphthalen-2-yl)-5-(pyridin-4-yl)pyridazin-3-amine] | 89 | 107 | 91 | 91 | 97 | 93 | 98 | 48 | 92 | 106 | 104 | 99 | 88 | 108 | 88 | 95 | 91 | 108 | 101 | 96 | activity at 20 µM (PDGFRα(V561D)): 114%; activity at 20 µM (GRK5): 110%; activity at 20 µM (ROCK-I): 89%; activity at 20 µM (DAPK1): 92%; activity at 20 µM (WNK3): 91%; activity at 20 µM (EGFR(T790M)): 68%; activity at 20 µM (Axl): 106%; activity at 20 µM (Ret(V804M)): 85%; activity at 20 µM (JAK3): 90%; activity at 20 µM (Plk3): 103%; Dose Escalating Adverse Event Screen / Adverse Pharm Dose [1]: ≥ 200 mg/kg; Dose Escalating Adverse Event Screen / Adverse Pharm Dose ([1]; listed as MW01-11-108SRM): > 200 mg/kg; activity at 20 µM (Snk): 98%; activity at 20 µM (Fms): 98%; activity at 20 µM (EphA1): 97%; activity at 20 µM (PKCη): 88%; activity at 20 µM (LKB1): 102%; activity at 20 µM (Tec(h) activated): 89%; activity at 20 µM (Abl (Q252H)): 105%

— article PMC3694096, “Development of Novel In Vivo Chemical Probes to Address CNS Protein Kinase Involvement in Synaptic Dysfunction” (PLoS ONE, 2013)
